In patent publication US10125126B2, “N-cycloalkyl-N-[(heterocyclylphenyl)methylene]-(thio)carboxamide derivatives” (BAYER CROPSCIENCE AG, priority 2012, dated 2018):

Experiments:
Uromyces appendiculatus = experiment: In vivo preventive test on Uromyces appendiculatus (bean rust); details: bean plants, 11 days after contamination
Description: In Vivo Preventive Test on Uromyces appendiculatus (Bean Rust) […] Bean plants (“Saxa” variety), sown in starter cups on a 50/50 peat soil pozzolana substrate and grown at 24° C., are treated at the 2 leaf stage (9 cm height) by spraying with the active ingredient prepared as described above. Plants, used as controls, are treated with the mixture of acetone/tween/DMSO/water not containing the active material. After 24 hours, the plants are contaminated by spraying the leaves with an aqueous suspension of Uromyces appendiculatus spores (150 000 spores per mL). The spores are collected from infected plants and are suspended in water containing 2.5 mL/L of Tween 80 at 10%. […] Grading (% of efficacy) is carried out 11 days after the contamination, in comparison with the control plants.

[1] = log P by HPLC on a reversed-phase column (C 18), EEC Directive 79/831 Annex V.A8; format: physicochemical; details: HPLC on reversed-phase column (C 18), 40° C., 0.1% aqueous formic acid and acetonitrile, linear gradient 10% to 90% acetonitrile
Procedure, shortened: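 Retention times were converted to log P by linear interpolation between two successive unbranched alkan-2-ones (3 to 16 carbon atoms) of known log P used for calibration. Elution ran at 40° C with a linear gradient from 10% to 90% acetonitrile against 0.1% aqueous formic acid.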

Botrytis cinerea = experiment: In vivo preventive test on Botrytis cinerea (grey mould); details: gherkin plants, 4 to 5 days after contamination
Description: In Vivo Preventive Test on Botrytis cinerea (Grey Mould) […] Gherkin plants (“Vert petit de Paris” variety), sown in starter cups on a 50/50 peat soil pozzolana substrate and grown at 24° C., are treated at the Z11 cotyledon stage by spraying with the active ingredient prepared as described above. Plants, used as controls, are treated with the mixture of acetone/tween/DMSO/water not containing the active material. After 24 hours, the plants are contaminated by spraying the cotyledons with an aqueous suspension of cryopreserved Botrytis cinerea spores (50 000 spores per mL). The spores are suspended in a nutrient solution composed of 10 g/L of PDB, 50 g/L of D-Fructose, 2 g/L of NH4NO3 and 1 g/L of KH2PO4. The contaminated gherkin plants are incubated at 17° C. and at 90% relative humidity. Grading (% of efficacy) is carried out 4 to 5 days after the contamination, in comparison with the control plants.

Septoria tritici = experiment: In vivo preventive test on Septoria tritici (wheat); details: wheat plants, 24 days after contamination
Description: In Vivo Preventive Test on Septoria tritici (Wheat) […] Wheat plants (“Scipion” variety), sown in starter cups on a 50/50 peat soil pozzolana substrate and grown at 22° C., are treated at the 1 leaf stage (10 cm height) by spraying with the active ingredient prepared as described above. Plants, used as controls, are treated with the mixture of acetone/tween/DMSO/water not containing the active material. After 24 hours, the plants are contaminated by spraying the leaves with an aqueous suspension of cryopreserved Septoria tritici spores (500 000 spores per mL). The contaminated wheat plants are incubated for 72 hours at 18° C. and at 100% relative humidity, and then for 21 days at 90% relative humidity. Grading (% of efficacy) is carried out 24 days after the contamination, in comparison with the control plants.

Puccinia recondita = experiment: In vivo preventive test on Puccinia recondita (brown rust on wheat); details: wheat plants, 12 days after contamination
Description: In Vivo Preventive Test on Puccinia recondita (Brown Rust on Wheat) […] Wheat plants (“Scipion” variety), sown in starter cups on a 50/50 peat soil pozzolana substrate and grown at 22° C., are treated at the 1 leaf stage (10 cm height) by spraying with the active ingredient prepared as described above. Plants, used as controls, are treated with the mixture of acetone/tween/DMSO/water not containing the active material. After 24 hours, the plants are contaminated by spraying the leaves with an aqueous suspension of Puccinia recondita spores (100 000 spores per mL). The spores are collected from an infected plant and are suspended in water containing 2.5 mL/L of Tween 80 at 10%. […] Grading (% of efficacy) is carried out 12 days after the contamination, in comparison with the control plants.

Pyrenophora teres = experiment: In vivo preventive test on Pyrenophora teres (barley); details: barley plants, 14 days after contamination
Description: In Vivo Preventive Test on Pyrenophora teres (Barley) […] Barley plants (“Plaisant” variety), sown in starter cups on a 50/50 peat soil pozzolana substrate and grown at 22° C., are treated at the 1 leaf stage (10 cm height) by spraying with the active ingredient prepared as described above. Plants, used as controls, are treated with the mixture of acetone/tween/DMSO/water not containing the active material. After 24 hours, the plants are contaminated by spraying the leaves with an aqueous suspension of Pyrenophora teres spores (12 000 spores per mL). The spores are collected from a 12-day-old culture. […] Grading (% of efficacy) is carried out 14 days after the contamination, in comparison with the control plants.

Sphaerotheca fuliginea = experiment: In vivo preventive test on Sphaerotheca fuliginea (powdery mildew on cucurbits); details: gherkin plants, 12 days after contamination
Description: In Vivo Preventive Test on Sphaerotheca fuliginea (Powdery Mildew on Cucurbits) […] Gherkin plants (“Vert petit de Paris” variety), sown in starter cups on a 50/50 peat soil-pozzolana substrate and grown at 24° C., are treated at the Z11 cotyledon stage by spraying with the active ingredient prepared as described above. Plants, used as controls, are treated with the mixture of acetone/tween/DMSO/water not containing the active material. After 24 hours, the plants are contaminated by spraying the cotyledons with an aqueous suspension of Sphaerotheca fuliginea spores (100 000 spores per mL). The spores are collected from infected plants. […] Grading (% of efficacy) is carried out 12 days after the contamination, in comparison with the control plants.

Structure (SMILES) | Efficacy (Uromyces appendiculatus; 500 ppm of active ingredient) | logP [1] | Efficacy (Botrytis cinerea; 500 ppm of active ingredient) | Efficacy (Septoria tritici; 500 ppm of active ingredient) | Efficacy (Puccinia recondita; 500 ppm of active ingredient) | Efficacy (Pyrenophora teres; 500 ppm of active ingredient) | Efficacy (Sphaerotheca fuliginea; 500 ppm of active ingredient) | Efficacy (Pyrenophora teres; 100 ppm of active ingredient) | Efficacy (Uromyces appendiculatus; 100 ppm of active ingredient) | Efficacy (Sphaerotheca fuliginea; 100 ppm of active ingredient) | Efficacy (Puccinia recondita; 100 ppm of active ingredient) | Efficacy (Botrytis cinerea; 100 ppm of active ingredient) | Efficacy (Septoria tritici; 100 ppm of active ingredient)
Cn1cc(C(=O)N(Cc2cc(-c3ccc(Cl)s3)ccc2Cl)C2CC2)c(C(F)F)n1 [I.144] | 94% | 4.41 | 98% | 100% | 75% | – | – | – | – | – | – | – | –
Cc1ccc(C2(C)CO2)c(CN(C(=O)c2c(C(F)F)nn(C)c2F)C2CC2)c1 (centres unmarked) [I.5] | – | 3.04 | – | 97% | 98% | 93% | 100% | – | – | – | – | – | –
Cn1nc(C(F)F)c(C(=O)N(Cc2cc(-c3cccs3)ccc2Cl)C2CC2)c1F [I.83] | – | 4.06 | – | – | – | – | – | 86% | 80% | 98% | 75% | – | –
Cn1nc(C(F)F)c(C(=O)N(Cc2cc(-c3ccc(Cl)s3)ccc2Cl)C2CC2)c1Cl [I.145] | 100% | 5.06 | – | 94% | 88% | – | – | – | – | – | – | 100% | –
Cc1nn(C)c(C)c1-c1ccccc1CN(C(=O)c1c(C(F)F)nn(C)c1F)C1CC1 [I.114] | – | 2.52 | – | 100% | 72% | 79% | 94% | – | – | – | – | – | –
Cn1nc(C(F)F)c(C(=S)N(Cc2ccccc2-c2cccs2)C2CC2)c1F [I.75] | 100% | 4.29 | 100% | 86% | 94% | – | 90% | – | – | – | – | – | –
Cn1cc(C(=O)N(Cc2cc(-c3ccco3)ccc2Cl)C2CC2)c(C(F)F)n1 [I.36] | – | 3.44 | – | – | – | – | – | 71% | – | – | – | – | –
Cn1nc(C(F)F)c(C(=O)N(Cc2cc(-c3ccsc3)ccc2Cl)C2CC2)c1F [I.95] | – | 3.96 | – | – | – | – | – | 88% | – | 98% | – | – | –
Cc1ccc(-c2cnn(C)c2)c(CN(C(=O)c2c(C(F)F)nn(C)c2Cl)C2CC2)c1 [I.57] | – | 2.71 | – | – | – | – | – | 79% | – | – | – | – | –
COc1ccsc1-c1ccc(Cl)cc1CN(C(=O)c1c(C(F)F)nn(C)c1F)C1CC1 [I.121] | – | 3.99 | – | 80% | 94% | 86% | 100% | – | – | – | – | – | –
COc1ccsc1-c1ccccc1CN(C(=O)c1c(C(F)F)nn(C)c1F)C1CC1 [I.120] | 100% | 3.52 | – | 80% | 100% | 79% | 100% | – | – | – | – | – | –
Cn1nc(C(F)F)c(C(=O)N(Cc2cc(F)ccc2-c2ccoc2)C2CC2)c1F [I.27] | 100% | 3.33 | – | 80% | 100% | 93% | 100% | – | – | – | – | – | –
Cn1nc(C(F)F)c(C(=O)N(Cc2cc(Cl)ccc2-c2ccsc2)C2CC2)c1F [I.66] | 100% | 3.99 | 91% | – | 94% | – | 95% | – | – | – | – | – | –
Cc1ccc(-c2coc3ccccc23)c(CN(C(=O)c2c(C(F)F)nn(C)c2F)C2CC2)c1 [I.134] | – | 4.32 | – | – | – | – | – | 71% | 77% | 90% | – | – | 79%
COc1ccsc1-c1cc(Cl)ccc1CN(C(=O)c1c(C(F)F)nn(C)c1F)C1CC1 [I.123] | 99% | 4.14 | 100% | 94% | 94% | – | 100% | – | – | – | – | – | –
Cn1cc(C(=O)N(Cc2cc(-c3ccsc3)ccc2Cl)C2CC2)c(C(F)F)n1 [I.93] | – | 3.59 | – | – | – | – | – | 88% | – | – | – | – | 86%
Cn1ccc(-c2ccccc2CN(C(=O)c2c(C(F)F)nn(C)c2F)C2CC2)c1 [I.49] | 100% | 3.25 | 99% | 96% | – | – | 78% | – | – | – | – | – | –
Cn1ccc(-c2ccc(F)cc2CN(C(=O)c2c(C(F)F)nn(C)c2F)C2CC2)c1 [I.47] | – | 3.37 | – | – | – | 71% | 94% | – | – | – | – | – | –
COc1ccsc1-c1cc(F)ccc1CN(C(=O)c1c(C(F)F)nn(C)c1F)C1CC1 [I.122] | 100% | 3.70 | 100% | 100% | 98% | – | 100% | – | – | – | – | – | –
Cn1nc(C(F)F)c(C(=O)N(Cc2ccccc2-c2ccco2)C2CC2)c1F [I.32] | – | 3.31 | – | – | – | – | – | – | 74% | – | 88% | 94% | –
Cn1nc(C(F)F)c(C(=O)N(Cc2ccc(F)cc2-c2csc3ccccc23)C2CC2)c1F [I.158] | 91% | 4.44 | 100% | 98% | 81% | – | 100% | – | – | – | – | – | –
